Reference: patent publication US20240000872A1, “NOVEL BACTERIOPHAGE THAT LYSES ACINETOBACTER GENUS BACTERIA HAVING RESISTANCE TO ANTIBIOTICS” (priority 2020, published 2024)

Tested on: Acinetobacter baumannii strains
Assay: Antibiotic susceptibility test (CLSI disk diffusion test method, read per CLSI 2016)
Assay type: cell-based
Set-up: antibiotic susceptibility test value / susceptibility test value (number given before S/I/R) / antibiotic susceptibility value: unit not given here
Procedure: Strain identification was performed using a kit such as AT 32 GN system (bioMérieux, Marcy l'Etoile, France). […] In Table 2 below, S, I, and R are the results obtained by evaluating susceptibility to the antibacterial agents, in which ‘S’ means susceptible, ‘I’ means intermediate, and ‘R’ means resistant.
Strain identification was performed using a kit such as ATB 32 GN system (bioMédrieux, Marcy l'Etoile, France). […] In Table 6 below, S, I, and R are the results obtained by evaluating susceptibility to the antibacterial agents, in which ‘S’ means susceptible, ‘I’ means intermediate, and ‘R’ means resistant.
Strain identification was performed using a kit such as ATB 32 GN system (bioMérieux, Marcy l'Etoile, France). […] In Table 10 below, S, I, and R are the results obtained by evaluating susceptibility to the antibacterial agents, in which ‘S’ means susceptible, T means intermediate, and ‘R’ means resistant.

cortrimoxazole
20: antibiotic susceptibility value (host strain YMC16/01/R380) | susceptibility test value (number given before S/I/R) (host strain YMC16/01/R380) | antibiotic susceptibility value (host strain YMC17/01/B12075) | susceptibility test value (number given before S/I/R) (host strain YMC17/01/B12075) | antibiotic susceptibility value (host strain YMC17/02/B4864) | susceptibility test value (number given before S/I/R) (host strain YMC17/02/B4864) | antibiotic susceptibility value (host strain YMC17/02/P523) | susceptibility test value (number given before S/I/R) (host strain YMC17/02/P523)
160: antibiotic susceptibility value (host strain YMC16/01/R353) | susceptibility test value (number given before S/I/R) (host strain YMC16/01/R353) | antibiotic susceptibility value (host strain YMC16/01/R397) | susceptibility test value (number given before S/I/R) (host strain YMC16/01/R397) | antibiotic susceptibility value (host strain YMC16/09/R2471) | susceptibility test value (number given before S/I/R) (host strain YMC16/09/R2471) | antibiotic susceptibility value (host strain YMC16/10/R2537) | susceptibility test value (number given before S/I/R) (host strain YMC16/10/R2537) | antibiotic susceptibility value (host strain YMC16/12/B11422) | susceptibility test value (number given before S/I/R) (host strain YMC16/12/B11422) | antibiotic susceptibility value (host strain YMC17/01/B10087) | susceptibility test value (number given before S/I/R) (host strain YMC17/01/B10087) | antibiotic susceptibility value (host strain YMC17/01/B13454) | susceptibility test value (number given before S/I/R) (host strain YMC17/01/B13454) | antibiotic susceptibility value (host strain YMC17/01/P518) | susceptibility test value (number given before S/I/R) (host strain YMC17/01/P518) | antibiotic susceptibility value (host strain YMC17/02/B4520) | susceptibility test value (number given before S/I/R) (host strain YMC17/02/B4520) | antibiotic susceptibility value (host strain YMC17/04/R488) | susceptibility test value (number given before S/I/R) (host strain YMC17/04/R488)
320: antibiotic susceptibility value (host strain YMC16/01/R405) | susceptibility test value (number given before S/I/R) (host strain YMC16/01/R405) | antibiotic susceptibility value (host strain YMC16/03/R4461) | susceptibility test value (number given before S/I/R) (host strain YMC16/03/R4461) | antibiotic susceptibility value (host strain YMC16/05/R2210) | susceptibility test value (number given before S/I/R) (host strain YMC16/05/R2210) | antibiotic susceptibility value (host strain YMC16/07/R2512) | susceptibility test value (number given before S/I/R) (host strain YMC16/07/R2512) | antibiotic susceptibility value (host strain YMC16/12/B11449) | susceptibility test value (number given before S/I/R) (host strain YMC16/12/B11449) | antibiotic susceptibility value (host strain YMC16/12/B13325) | susceptibility test value (number given before S/I/R) (host strain YMC16/12/B13325) | antibiotic susceptibility value (host strain YMC16/12/P503) | susceptibility test value (number given before S/I/R) (host strain YMC16/12/P503) | antibiotic susceptibility value (host strain YMC16/12/R4637) | susceptibility test value (number given before S/I/R) (host strain YMC16/12/R4637) | antibiotic susceptibility value (host strain YMC17/01/B8053) | susceptibility test value (number given before S/I/R) (host strain YMC17/01/B8053) | antibiotic susceptibility value (host strain YMC17/01/R2812) | susceptibility test value (number given before S/I/R) (host strain YMC17/01/R2812) | antibiotic susceptibility value (host strain YMC17/02/B14) | susceptibility test value (number given before S/I/R) (host strain YMC17/02/B14) | antibiotic susceptibility value (host strain YMC17/02/B87) | susceptibility test value (number given before S/I/R) (host strain YMC17/02/B87) | antibiotic susceptibility value (host strain YMC17/02/B721) | susceptibility test value (number given before S/I/R) (host strain YMC17/02/B721) | antibiotic susceptibility value (host strain YMC17/02/B8414) | susceptibility test value (number given before S/I/R) (host strain YMC17/02/B8414) | antibiotic susceptibility value (host strain YMC17/02/R541) | susceptibility test value (number given before S/I/R) (host strain YMC17/02/R541) | antibiotic susceptibility value (host strain YMC17/02/R2392) | susceptibility test value (number given before S/I/R) (host strain YMC17/02/R2392) | antibiotic susceptibility value (host strain YMC17/03/B4730) | susceptibility test value (number given before S/I/R) (host strain YMC17/03/B4730) | antibiotic susceptibility value (host strain YMC17/03/B5000) | susceptibility test value (number given before S/I/R) (host strain YMC17/03/B5000) | antibiotic susceptibility value (host strain YMC17/03/P971) | susceptibility test value (number given before S/I/R) (host strain YMC17/03/P971) | antibiotic susceptibility value (host strain YMC17/03/R348) | susceptibility test value (number given before S/I/R) (host strain YMC17/03/R348) | antibiotic susceptibility value (host strain YMC17/03/R585) | susceptibility test value (number given before S/I/R) (host strain YMC17/03/R585) | antibiotic susceptibility value (host strain YMC17/03/R1888) | susceptibility test value (number given before S/I/R) (host strain YMC17/03/R1888) | antibiotic susceptibility value (host strain YMC17/03/R3279) | susceptibility test value (number given before S/I/R) (host strain YMC17/03/R3279) | antibiotic susceptibility value (host strain YMC17/03/R4077) | susceptibility test value (number given before S/I/R) (host strain YMC17/03/R4077) | antibiotic susceptibility value (host strain YMC17/03/R4607) | susceptibility test value (number given before S/I/R) (host strain YMC17/03/R4607) | antibiotic susceptibility value (host strain YMC17/04/R640) | susceptibility test value (number given before S/I/R) (host strain YMC17/04/R640) | antibiotic susceptibility value (host strain YMC/17/05/R1095) | susceptibility test value (number given before S/I/R) (host strain YMC/17/05/R1095)
80: antibiotic susceptibility value (host strain YMC17/02/B4039) | susceptibility test value (number given before S/I/R) (host strain YMC17/02/B4039)
S: antibiotic susceptibility S/I/R (host strain YMC16/01/R380) | susceptibility category (S/I/R) (host strain YMC16/01/R380) | antibiotic susceptibility S/I/R (host strain YMC17/01/B12075) | susceptibility category (S/I/R) (host strain YMC17/01/B12075) | antibiotic susceptibility S/I/R (host strain YMC17/02/B4864) | susceptibility category (S/I/R) (host strain YMC17/02/B4864) | antibiotic susceptibility S/I/R (host strain YMC17/02/P523) | susceptibility category (S/I/R) (host strain YMC17/02/P523)
R: susceptibility category (S/I/R) (host strain YMC16/01/R353) | antibiotic susceptibility S/I/R (host strain YMC16/01/R397) | susceptibility category (S/I/R) (host strain YMC16/01/R397) | antibiotic susceptibility S/I/R (host strain YMC16/01/R405) | susceptibility category (S/I/R) (host strain YMC16/01/R405) | antibiotic susceptibility S/I/R (host strain YMC16/03/R4461) | susceptibility category (S/I/R) (host strain YMC16/03/R4461) | antibiotic susceptibility S/I/R (host strain YMC16/05/R2210) | susceptibility category (S/I/R) (host strain YMC16/05/R2210) | antibiotic susceptibility S/I/R (host strain YMC16/07/R2512) | susceptibility category (S/I/R) (host strain YMC16/07/R2512) | antibiotic susceptibility S/I/R (host strain YMC16/09/R2471) | susceptibility category (S/I/R) (host strain YMC16/09/R2471) | antibiotic susceptibility S/I/R (host strain YMC16/10/R2537) | susceptibility category (S/I/R) (host strain YMC16/10/R2537) | antibiotic susceptibility S/I/R (host strain YMC16/12/B11422) | susceptibility category (S/I/R) (host strain YMC16/12/B11422) | antibiotic susceptibility S/I/R (host strain YMC16/12/B11449) | susceptibility category (S/I/R) (host strain YMC16/12/B11449) | antibiotic susceptibility S/I/R (host strain YMC16/12/B13325) | susceptibility category (S/I/R) (host strain YMC16/12/B13325) | antibiotic susceptibility S/I/R (host strain YMC16/12/P503) | susceptibility category (S/I/R) (host strain YMC16/12/P503) | antibiotic susceptibility S/I/R (host strain YMC16/12/R4637) | susceptibility category (S/I/R) (host strain YMC16/12/R4637) | antibiotic susceptibility S/I/R (host strain YMC17/01/B8053) | susceptibility category (S/I/R) (host strain YMC17/01/B8053) | antibiotic susceptibility S/I/R (host strain YMC17/01/B10087) | susceptibility category (S/I/R) (host strain YMC17/01/B10087) | antibiotic susceptibility S/I/R (host strain YMC17/01/B13454) | susceptibility category (S/I/R) (host strain YMC17/01/B13454) | antibiotic susceptibility S/I/R (host strain YMC17/01/P518) | susceptibility category (S/I/R) (host strain YMC17/01/P518) | antibiotic susceptibility S/I/R (host strain YMC17/01/R2812) | susceptibility category (S/I/R) (host strain YMC17/01/R2812) | antibiotic susceptibility S/I/R (host strain YMC17/02/B14) | susceptibility category (S/I/R) (host strain YMC17/02/B14) | antibiotic susceptibility S/I/R (host strain YMC17/02/B87) | susceptibility category (S/I/R) (host strain YMC17/02/B87) | antibiotic susceptibility S/I/R (host strain YMC17/02/B721) | susceptibility category (S/I/R) (host strain YMC17/02/B721) | antibiotic susceptibility S/I/R (host strain YMC17/02/B4039) | susceptibility category (S/I/R) (host strain YMC17/02/B4039) | antibiotic susceptibility S/I/R (host strain YMC17/02/B4520) | susceptibility category (S/I/R) (host strain YMC17/02/B4520) | antibiotic susceptibility S/I/R (host strain YMC17/02/B8414) | susceptibility category (S/I/R) (host strain YMC17/02/B8414) | antibiotic susceptibility S/I/R (host strain YMC17/02/R541) | susceptibility category (S/I/R) (host strain YMC17/02/R541) | antibiotic susceptibility S/I/R (host strain YMC17/02/R2392) | susceptibility category (S/I/R) (host strain YMC17/02/R2392) | antibiotic susceptibility S/I/R (host strain YMC17/03/B4730) | susceptibility category (S/I/R) (host strain YMC17/03/B4730) | antibiotic susceptibility S/I/R (host strain YMC17/03/B5000) | susceptibility category (S/I/R) (host strain YMC17/03/B5000) | antibiotic susceptibility S/I/R (host strain YMC17/03/P971) | susceptibility category (S/I/R) (host strain YMC17/03/P971) | antibiotic susceptibility S/I/R (host strain YMC17/03/R348) | susceptibility category (S/I/R) (host strain YMC17/03/R348) | antibiotic susceptibility S/I/R (host strain YMC17/03/R585) | susceptibility category (S/I/R) (host strain YMC17/03/R585) | antibiotic susceptibility S/I/R (host strain YMC17/03/R1888) | susceptibility category (S/I/R) (host strain YMC17/03/R1888) | antibiotic susceptibility S/I/R (host strain YMC17/03/R3279) | susceptibility category (S/I/R) (host strain YMC17/03/R3279) | antibiotic susceptibility S/I/R (host strain YMC17/03/R4077) | susceptibility category (S/I/R) (host strain YMC17/03/R4077) | antibiotic susceptibility S/I/R (host strain YMC17/03/R4607) | susceptibility category (S/I/R) (host strain YMC17/03/R4607) | antibiotic susceptibility S/I/R (host strain YMC17/04/R488) | susceptibility category (S/I/R) (host strain YMC17/04/R488) | antibiotic susceptibility S/I/R (host strain YMC17/04/R640) | susceptibility category (S/I/R) (host strain YMC17/04/R640) | antibiotic susceptibility S/I/R (host strain YMC/17/05/R1095) | susceptibility category (S/I/R) (host strain YMC/17/05/R1095)
